These results are taken from paper PMC9821130, “Testing Antimicrobial Properties of Selected Short Amyloids” (International Journal of Molecular Sciences, 2023).

Data set [1] in a line: Thioflavin T fluorescence, fibril/aggregate formation in MHB. In kind it is physicochemical. The note with it: ThT 20 µM, peptide 20 mg/mL in MHB, 37 °C, 24 h, reading every 30 s, ex 450 nm / em 490 nm. The protocol: In the second stage of our research, we decided to determine the propensity of the ten short amyloids (Table 1) to form fibrils under the conditions routinely used to evaluate AMP properties, i.e., upon their incubation in Mueller–Hinton Broth (MHB; for details, see Materials and Methods). These experiments could also allow us to speculate whether the amyloid properties of peptides go along with their antimicrobial activities. To detect the presence of protein fibrils, we used a benzothiazole dye (thioflavin T). Thioflavin T binds to β sheet-rich structures in amyloid aggregates and triggers a characteristic red shift, i.e., an increase in the wavelength in both excitation and emission maximum of the dye. […] The fluorescence spectra of the remaining peptides were indistinguishable from those of the medium itself (Figure S1).
The amyogenic abilities of the tested amyloids were determined in a kinetic reaction using the fluorescent dye thioflavin T (ThT), according to the modified method of Salinas et al.. […] ThT fluorescence intensity readings were performed in 96-well opaque microplates using a SpectraMax GeminiXPS spectrofluorometer at an excitation of λex 450 nm, an emission of λem 490 nm, and a cut-off point of λcut off 475 nm. Measurements were monitored for 24 h every 30 s. at 37 °C. The results were analysed in the SoftMax program. […]

The subject of data set [2] is Enterococcus faecium 2VRE. In kind it is cell-based. As for the experimental part: (§1) All bacterial strains were stored at −80 °C. The strains were revived using overnight cultures prepared in Tryptic Soy Broth (TSB, OXOID, Basingstoke, UK) and incubated under shaking conditions (MaxQTM6000 incubator shaker, Thermo Scientific, Waltham, MA, USA) at 125 rpm and 37 °C. Next, the purity of the strains was evaluated using enriched media (appropriate for the tested strains). For each experiment, a fresh 18–20 h culture was prepared on Tryptic Soy Agar (TSA, OXOID, Basingstoke, UK) for Gram-positive bacteria and MacConkey Agar (MC, OXOID, Basingstoke) for Gram-negative bacteria, and the samples were then transferred to fresh Mueller–Hinton Broth (MHB, OXOID, Basingstoke, UK), where the density was determined. Each culture was established at 10^8 CFU/mL and then diluted to a starting inoculum of 10^6 CFU/mL.
(§2) The microdilution method was used to measure the antimicrobial activity of amyloids. The test was performed according to the recommendations of EUCAST (ISO 20776–1:2019).
(§3) In 96-well microtiter plates, geometric dilutions of the tested amyloids were prepared from 128 to 0.25 µg/mL in 50 µL MHB. The stock solution (20 mg/mL) of the synthesized amyloids was prepared in MHB. The bacterial suspension prepared in MHB with a density of 10^6 CFU/mL was added to 50 µL of MHB containing the appropriate concentrations of amyloids, thus yielding a final bacterial concentration of 10^5 CFU/mL. Pure MHB was used as a negative control, while the control for bacterial growth was MHB medium in the presence of the strain used in the experiment. Antibiotic solutions were used as positive controls: colistin for Gram-negative bacteria and teicoplanin for Gram-positive bacteria.
(§4) Microtiter plates were incubated at 37 °C for 18 h for S. aureus, S. epidermidis, K. pneumoniae, E. coli, A. baumannii, and E. cloacae and 24 h for E. faecalis and E. faecium. Optimal density (OD600 nm) was measured in a plate reader (ASYS UVM340, BIOCHROM Ltd., Cambridge, UK). The absorbance results were converted to percentages (with respect to growth control) in the normalization process. The MIC (minimal inhibitory concentration) for each peptide was defined as the concentration at which the destruction of at least 90% of the initial inoculum was observed.
(§5) Each experiment was performed in three independent studies for each of the two isolates, and each replicate was performed in three separate wells. […] The MBC value was defined as the lowest concentration at which no growth of the tested strain was observed.
(§6) Linear regression analyses for viability of the HEK-293 cells subjected to ten amyloids, as well as the estimation of IC50 values, were determined in R Statistical Software using the model y = ax + 100% in the function lm from the stats package. The regression analyses for the viability of the bacterial cells and the estimation of MIC were conducted based on a linear mixed-effects model y = ax + 100% + (1|isolate/replicate) in lmer function from R package lme4 [73]. Isolates and replicates were assumed as random effects. The p-values of the determination coefficient and the slope were corrected using the Benjamini–Hochberg procedure for the obtained models.

For the next data set, the system named is Escherichia coli 1471. In kind it is cell-based. The protocol:
as §1, §2, §3, §4, §5, §6

Data set [3] relates to Enterococcus faecalis 37VRE. In kind it is cell-based. The protocol:
as §1, §2, §3, §4, §5, §6

For data set [4], the system named is Klebsiella pneumoniae N111. In kind it is cell-based. As for the experimental part:
as §1, §2, §3, §4, §5, §6

In another data set the test system is HEK-293 cells. In kind it is cell-based, human. The settings on record: HEK-293, MTT, 24 h exposure, 128 to 0.25 µg/mL; from linear regression y = ax + 100%. The protocol: HEK-293 human embryonic kidney cells (ATCC, CRL-1573) were cultured in DMEM medium supplemented with 10% fetal bovine serum and 1% penicillin/streptomycin solution. The cells were cultured at 37 °C, 5% CO2, until the concentration was about 10^6 per mL. A total of 2 × 10^5 cells/mL were seeded in 96-well tissue microplates (2 × 10^4 cells per well) and were allowed to adhere overnight under the conditions described above. Cytotoxicity tests were carried out on the cells prepared in this way.
Cells were incubated with varying concentrations from 128 to 0.25 µg/mL of the tested amyloid for 24 h exposure. The MTT assay has been previously described. After incubating the cells with the tested amyloids, the MTT reagent (Ck = 0.5 mg/mL) was added to a well of a microtiter plate. After 2 h incubation (37 °C, 5% CO2), the MTT medium was removed and replaced with DMSO, to which was then added Sorensen’s buffer (0.1 M glycine, 0.1 M NaCl; pH 10.5). In the MTT test, the cell viability is directly proportional to the absorbance (570 nm). The control cells for background absorbance contained the growth medium, with MTT only. For MTT analysis, at least three experiments were performed using cells from consecutive passages. […]

≈ marks a conversion by molar mass, not a printed value. Like-named read-outs stand apart in the source and are kept apart here. Where a SMILES comes first, the peptide text is derived from it. Where no end group is shown, it is not given here.

The MIC is the least concentration at which growth counts as inhibited. Regarding `C[C@@H](O)[C@H](NC(=O)[C@H](Cc1ccccc1)NC(=O)[C@H](CS)NC(=O)[C@H](Cc1c[nH]c2ccccc12)NC(=O)[C@H](CS)NC(=O)[C@@H](N)CCCCN)C(=O)O` [Amyloid 5] (H-KCWCFT-OH; N-terminus and C-terminus assumed), the “Formation of aggregates (fibrils) in the MHB medium” value in data set [1] is given as “formed aggregates in the MHB medium”. The MIC in data set [2] (2VRE) was found to be 230 µg/mL (≈ 292 µM); with Escherichia coli 1471, 405 µg/mL (≈ 515 µM).
Take AIIGLM [Amyloid 8]: the MIC in data set [3] (37VRE) stood at 496 µg/mL; in data set [4] (N111), 475 µg/mL; in data set [2] (2VRE), 280 µg/mL; in the data set on Escherichia coli 1471, 372 µg/mL.
What is called IC50 is the concentration at which inhibition is half-maximal. Regarding GGYLLG [Amyloid 9], in the data set with HEK-293 cells, the IC50 is given as 171 µg/mL. In addition, the minimal inhibitory concentration (MIC) in data set [3] (E. faecalis 37VRE, calculated from linear mixed-effects regression model, beyond tested range (max 128 µg/mL)) was 389 µg/mL; in data set [4] (K. pneumoniae N111, calculated from linear mixed-effects regression model, beyond tested range (max 128 µg/mL)), 406 µg/mL; in data set [2] (E. faecium 2VRE, calculated from linear mixed-effects regression model, beyond tested range (max 128 µg/mL), MIC = at least 90% destruction), 204 µg/mL.
Regarding LIVAGK [Amyloid 3], the minimum inhibitory concentration (MIC) in data set [2] (2VRE) is listed as 301 µg/mL.
Take LKVKVL [Amyloid 7]: the MIC in data set [3] (37VRE) was 418 µg/mL; in data set [2] (2VRE) it was 326 µg/mL; with Escherichia coli 1471, 345 µg/mL.
Consider VCIVYK [Amyloid 2], for which the minimal inhibitory concentration (MIC) turned out to be 364 µg/mL in data set [3] (37VRE) and 177 µg/mL in data set [2] (2VRE).
On the same counts, the results for VGIVYK [Amyloid 10] are 193 µg/mL and 295 µg/mL.
Take VKIVYK [Amyloid 6]: the values for the MIC (in data set [4] (N111); in data set [2] (2VRE); in the data set with Escherichia coli 1471) were 482 µg/mL, 179 µg/mL and 319 µg/mL, respectively.
For VQIVCK [Amyloid 1], the minimal inhibitory concentration (MIC) is 228 µg/mL in data set [3] (37VRE) and 196 µg/mL in data set [2] (2VRE).
